From US5747482A, “Methods and compositions to inhibit keratinocyte proliferation” (priority 1996, dated 1998)

Key:
[1] = distilled deionized water
Excerpt: Under some conditions, water may also be incorporated into the structure. […] The complex can be recrystallized from ethanol or other solvents to increase purity.

Keratinocytes [2] = assay: Effect on cell differentiation, keratinocytes grown 4 days before gallium maltol, Example 4; format: cell-based, human; settings: for CELL NUMBER, clear squamous / CELL NUMBER, squamous / CELL NUMBER, proliferative: 3 days after 4 days growth; for CELL NUMBER, clear squamous: control 2.0 ± 0.03%; for CELL NUMBER, squamous: control 13.3 ± 2.6%; for CELL NUMBER, proliferative: control 83.6 ± 3.0%
Protocol: (§1) Adult human keratinocytes from pooled donor skin were obtained from commercial sources (Cascade Biologics, Portland, Oreg., U.S.A.) and placed in 150 cm^2 bottom area culture flasks using culture medium 154 supplemented with HKGS (about 1%). At 80% confluency, cells were harvested with trypsin and cryopreserved until required.
Culture flasks (75 cm^2 bottom area) were seeded with keratinocytes at about 2,500 cells per cm^2 as before. After 24 hours, the medium in three (3) flasks were changed to media (154) with the calcium content increased from the normal 0.2 mM to 1.0 mM ("high calcium") plus gallium maltol (GaM) at the following concentrations: 1×10^-5 M, 5×10^-5 M, and 1×10^-4 M. The culture was continued for 7 days when cells were about 75% confluent in the controls (no GaM). Media supplemented as above were changed every 2 days. Finally, media were aspirated and cells rinsed with PBS before exposure to trypsin (0.025%)/EDTA (0.01%). When dislodged, they were collected in centrifuge tubes and the flasks rinsed with PBS:trypsin neutralizing solution (Clonetics, San Diego, Calif., U.S.A.; 1:1 v/v) and added to the cell suspension. The total volume of suspensions was approximately 8 to 10 mL. Aliquots of these suspensions were counted on the hemocytometer in terms of:
(1) small, light or dark keratinocytes, referred to as "proliferating";
(2) larger, squamous keratinocytes, with intracellular structural elements; and
(3) clear squamous cells without structural elements.
In a subsequent experiment, flasks of keratinocytes were grown in medium 154 for 4 days after seeding, before switching to the high calcium medium without gallium maltol (control) or with gallium maltol at final concentrations of 5×10^-5, 1×10^-5 or 1×10^-6 M. There were 2 or 3 flasks in each group. Culture was continued for another 3 days, when the keratinocytes were harvested and counted as before.

Keratinocytes [3] = assay: Comparison of keratinocyte growth inhibition by gallium maltol, gallium nitrate and maltol, Example 3; format: cell-based, human; settings: 1×10^-4 M, 9 days, high Ca^+2 medium; FIG. 3
Excerpt: as §1
At the start of the experiments, the required number of vials of keratinocytes was thawed, and the keratinocytes were placed in culture in 24 well plates at about 2,500 cells/cm^2 using the same culture medium as described above. After 24 hours (to allow attachment), the medium was changed to fresh 154 supplemented with HKGS (about 1%) and gallium maltol. Specifically, the fresh medium was prepared by addition of a sufficient amount of a stock solution to provide for six different compositions having a final gallium concentration of 10^-4 M, 10^-5 M, 10^-6 M, 10^-8 M, 10^-10 M, and 10^-12 M. The stock solution was prepared by adding 22.25 mg of gallium maltol to 50 mL of 154 medium and then passing the solution through a 0.2 μm filter and storing at 4° C.
When control cells were about 40% confluent (generally at 4-5 days in culture, all media were removed by aspiration, keratinocyte growth was assayed by crystal violet staining and conversion to cell numbers as described by Wilkinson, et al.^11. Specifically, cell layers rinsed in PBS, which was also aspirated, and 4 drops of crystal violet solution added to each well. The crystal violet solution was prepared by dissolving crystal violet (Fisher Scientific) in PBS:formaldehyde:ethanol (67:3:30%) to give a 0.5 w/v solution. A blank 24-well plate was treated similarly.
Keratinocytes were cultured in 24-well plates for 9 days in the manner described above in Example 2. […]
The cells were then cultured and subsequently evaluated for inhibition of keratinocyte proliferation in the manner described above.

In the case of `Cc1occc(=O)c1[O-].Cc1occc(=O)c1[O-].Cc1occc(=O)c1[O-].[Ga+3]` [gallium maltol, neutral 3:1 gallium complex of maltol], the solubility [1] was “about 24 millimolar”, the “CELL NUMBER, clear squamous” value (Keratinocytes [2]; 1×10^-5 M) was 3.1 ± 0.06% and the “CELL NUMBER, squamous” value (Keratinocytes [2]; 1×10^-5 M) was 16.0 ± 3.1%. For the same compound, the “CELL NUMBER, proliferative” value (Keratinocytes [2]; 1×10^-5 M) was 80.8 ± 2.0%, the “differences in cell differentiation as determined by the proportion of cells” value (Keratinocytes [2]; 5×10^-5 M, 1×10^-5 M (1×10^-6 M not counted), 4 days growth, then 3 days exposure) was “no significant differences were observed in cell differentiation” and the “CELL NUMBER, clear squamous” value (Keratinocytes [2]; 5×10^-5 M) was 3.5 ± 0.06%. The “CELL NUMBER, squamous” value (Keratinocytes [2]; 5×10^-5 M) was 14.0 ± 1.1%, the “CELL NUMBER, proliferative” value (Keratinocytes [2]; 5×10^-5 M) was 82.4 ± 0.91% and the “inhibition of keratinocyte proliferation” value (Keratinocytes [3]) was “about 94%”.
